Assay results as given in patent US9521846B2, “Template-fixed peptidomimetics with antimicrobial activity” (priority 2006, dated 2016).
In brackets after ≈: the same amount, converted by molar mass. Non-standard residues stand in square brackets, D forms with d. Residues, ends and D or L forms follow the SMILES beside them. Cit = NC(=O)NCCC[C@H](N)C(=O)O; Chg = N[C@H](C(=O)O)C1CCCCC1; dDab = NCC[C@@H](N)C(=O)O; Orn = NCCC[C@H](N)C(=O)O; Dab = NCC[C@H](N)C(=O)O

What was measured:
P. aeruginosa ATCC 27853 = type: cell-based, Pseudomonas aeruginosa; conditions: ATCC 27853
Procedure: (§1) The selective antimicrobial activities of the peptides were determined in 96-well plates (Nunclon polystyrene) by the standard NCCLS broth microdilution method (see ref 1, below) with slight modifications. Innocula of the microorganisms were diluted into Mueller-Hinton (MH) broth+0.02% BSA and compared with a 0.5 Mcfarland standard to give appr. 10^6 colony forming units (CFU)/ml. Aliquots (50 μl) of inoculate were added to 50 μl of MH broth+0.02% BSA containing the peptide in serial two-fold dilutions. The following microorganisms were used to determine antibiotic selectivity of the peptides: Escherichia coli (ATCC 25922), Pseudomonas aeruginosa (P. aeruginosa ATCC 27853, P8191900, P1021903, P1021913, IMP 1 Livermore 3140).

[1] = tested on: Pseudomonas aeruginosa P1021913; type: cell-based; conditions: P1021913
Procedure: as §1

[2] = tested on: Pseudomonas aeruginosa P8191900; type: cell-based; conditions: P8191900
Procedure: as §1

[3] = tested on: Pseudomonas aeruginosa IMP 1 Livermore 3140; type: cell-based; conditions: IMP 1 Livermore 3140
Procedure: as §1

[4] = tested on: Pseudomonas aeruginosa P1021903; type: cell-based; conditions: P1021903
Procedure: as §1

[5] = tested on: human red blood cells (hRBC); assay: Hemolysis; type: cell-based; conditions: 100
Procedure: Hemolysis of red blood cells is often employed for assessment of toxicity of related compounds such as protegrin or tachyplesin. Values are given as %-lysis of red blood cells observed at a concentration of 100 μg/ml. Typical values determined for cationic peptides such as protegrin and tachyplesin range between 30-40% with average MIC-values of 1-5 μg/ml over a wide range of pathogens.
The peptides were tested for their hemolytic activity against human red blood cells (hRBC). Fresh hRBC were washed three times with phosphate buffered saline (PBS) by centrifugation for 10 min at 2000×g. Peptides at a concentration of 100 μM were incubated with 20% v/v hRBC for 1 hour at 37° C. The final erythrocyte concentration was approximately 0.9×10^9 cells per ml. A value of 0% and, respectively, 100% cell lysis was determined by incubation of the hRBC in the presence of PBS alone and, respectively, 0.1% Triton X-100 in H2O. The samples were centrifuged, the supernatant was 20-fold diluted in PBS buffer and the optical density (OD) of the sample at […] was measured. The 100% lysis value (OD540H20) gave an OD540 of approximately 1.3-1.8. Percent hemolysis was calculated as follows: (OD540peptide/OD540H20)×100%.

HELA cells (Acc57) = assay: Cytotoxicity assay, MTT reduction (LC 50, GI 50); type: cell-based
Procedure: The cytotoxicity of the peptides to HELA cells (Acc57) and COS-7 cells (CRL-1651) was determined using the MIT reduction assay [see ref. 2 and 3, below]. Briefly the method was as follows: HELA cells and COS-7 cells were seeded at 7.0×10^3 and, respectively, 4.5×10^3 cells per well and grown in 96-well […] plates for 24 hours at 37° C. at 5% CO2. At this point, time zero (Tz) was determined by MTT reduction (see below). The supernatant of the remaining wells was discarded, and fresh medium and the peptides in serial dilutions of 12.5, 25 and 50 μM were dispensed into the wells. Each peptide concentration was assayed in triplicate. Incubation of the cells was continued for 48 hours at 37° C. at 5% CO2. Wells were then washed once with phosphate buffered saline (PBS) and subsequently 100 μl MIT reagent (0.5 mg/ml in medium RPMI1640 and, respectively, DMEM) were added to the wells. This was incubated at 37° C. for 2 hours and subsequently the medium was aspirated and 100 μl isopropanol were added to each well. The absorbance at 595 nm of the solubilized product was measured (OD595peptide). For each concentration averages were calculated from triplicates. The percentage of growth was calculated as follows: (OD595peptide-OD595Tz-OD595Empty well)/(OD595Tz-OD595Empty well)×100% and was plotted for each peptide concentration.
The LC 50 values (Lethal Concentration, defined as the concentration that kills 50% of the cells) were determined for each peptide by using the trend line function of EXCEL (Microsoft Office 2000) for the concentrations (50, 25, 12.5 and 0 μM), the corresponding growth percentages and the value −50, (=TREND(C50:C0,%50:%0,−50)). The GI 50 (Growth Inhibition) concentrations were calculated for each peptide by using a trend line function for the concentrations (50, 25, 12.5 and 0 […]), the corresponding percentages and the value 50, (=TREND (C50:C0,%50:%0,50).

| Compound | Average MIC (P. aeruginosa) [mg/L] | MIC P. aeruginosa ATCC 27853 (P. aeruginosa ATCC 27853) [mg/L] | MIC P. aeruginosa P1021913 [1] [mg/L] | MIC P. aeruginosa P8191900 [2] [mg/L] | MIC P. aeruginosa IMP1 Livermore 3140 [3] [mg/L] | MIC P. aeruginosa P1021903 [4] [mg/L] | Hemolysis at 100 μg/ml [5] [%] | Cytotoxicity GI50 Hela cells (HELA cells (Acc57)) [µM] |
| --- | --- | --- | --- | --- | --- | --- | --- | --- |
| CC[C@H](C)[C@@H]1NC(=O)[C@H](Cc2c[nH]c3ccccc23)NC(=O)[C@H](CCCNC(N)=O)NC(=O)[C@@H]2CCCN2C(=O)[C@H]2CCCN2C(=O)[C@H](CCN)NC(=O)[C@H](C)NC(=O)[C@H](CCN)NC(=O)[C@H](CCN)NC(=O)[C@H](Cc2c[nH]c3ccccc23)NC(=O)[C@H](CCN)NC(=O)[C@H](CCN)NC(=O)[C@H](CCCCN)NC(=O)[C@H](CCN)NC1=O [Example 18] (cyclo([Cit]WI[Dab]K[Dab][Dab]W[Dab][Dab]A[Dab][dP]P)) | 0.28 | 0.06 (≈ 0.0367 µM) | 0.81 (≈ 0.495 µM) | 0.10 (≈ 0.0611 µM) | 0.30 (≈ 0.183 µM) | 0.10 (≈ 0.0611 µM) | 0.4 | 50 |
| CC[C@H](C)[C@@H]1NC(=O)[C@H](Cc2c[nH]c3ccccc23)NC(=O)[C@H]([C@@H](C)O)NC(=O)[C@@H]2CCCN2C(=O)[C@H]2CCCN2C(=O)[C@H](CCN)NC(=O)[C@H](CCC(N)=O)NC(=O)[C@H](CCN)NC(=O)[C@H](CCN)NC(=O)[C@H](Cc2c[nH]c3ccccc23)NC(=O)[C@H](CCN)NC(=O)[C@H](CCN)NC(=O)[C@H](CCCCN)NC(=O)[C@H](CCN)NC1=O [Example 13] (cyclo(TWI[Dab]K[Dab][Dab]W[Dab][Dab]Q[Dab][dP]P)) | 0.40 | 0.21 (≈ 0.128 µM) | 0.31 (≈ 0.189 µM) | 0.30 (≈ 0.183 µM) | 0.75 (≈ 0.458 µM) | 0.40 (≈ 0.244 µM) | 0.4 | 50 |
| CC[C@H](C)[C@@H]1NC(=O)[C@H](Cc2c[nH]c3ccccc23)NC(=O)[C@H]([C@@H](C)O)NC(=O)[C@@H]2CCCN2C(=O)[C@H]2CCCN2C(=O)[C@H](CCN)NC(=O)[C@H]([C@@H](C)CC)NC(=O)[C@H](CCN)NC(=O)[C@H](CCN)NC(=O)[C@H](Cc2c[nH]c3ccccc23)NC(=O)[C@H](CCN)NC(=O)[C@H](CCN)NC(=O)[C@H](CCCCN)NC(=O)[C@H](CCN)NC1=O [Example 8] (cyclo(TWI[Dab]K[Dab][Dab]W[Dab][Dab]I[Dab][dP]P)) | 0.23 | 0.05 (≈ 0.0308 µM) | 0.31 (≈ 0.191 µM) | 0.18 (≈ 0.111 µM) | 0.43 (≈ 0.265 µM) | 0.18 (≈ 0.111 µM) | 0 | 50 |
| C[C@@H]1NC(=O)[C@H](CCN)NC(=O)[C@H](CCN)NC(=O)[C@H](Cc2c[nH]c3ccccc23)NC(=O)[C@H](CCN)NC(=O)[C@H](CCN)NC(=O)[C@H](CCCCN)NC(=O)[C@H](CCN)NC(=O)[C@H](C2CCCCC2)NC(=O)[C@H](Cc2c[nH]c3ccccc23)NC(=O)[C@H]([C@@H](C)O)NC(=O)[C@@H]2CCCN2C(=O)[C@H]2CCCN2C(=O)[C@H](CCN)NC1=O [Example 33] (cyclo(TW[Chg][Dab]K[Dab][Dab]W[Dab][Dab]A[Dab][dP]P)) | 0.25 | 0.05 (≈ 0.0311 µM) | 0.31 (≈ 0.193 µM) | 0.18 (≈ 0.112 µM) | 0.43 (≈ 0.268 µM) | 0.29 (≈ 0.18 µM) | 0.1 | 50 |
| CC[C@H](C)[C@@H]1NC(=O)[C@H](Cc2c[nH]c3ccccc23)NC(=O)[C@H]([C@@H](C)O)NC(=O)[C@@H]2CCCN2C(=O)[C@H]2CCCN2C(=O)[C@H](CCN)NC(=O)[C@H](CC(N)=O)NC(=O)[C@H](CCN)NC(=O)[C@H](CCN)NC(=O)[C@H](Cc2c[nH]c3ccccc23)NC(=O)[C@H](CCN)NC(=O)[C@H](CCN)NC(=O)[C@H](CCCCN)NC(=O)[C@H](CCN)NC1=O [Example 38] (cyclo(TWI[Dab]K[Dab][Dab]W[Dab][Dab]N[Dab][dP]P)) | 0.35 | 0.09 (≈ 0.0554 µM) | 0.27 (≈ 0.166 µM) | 0.17 (≈ 0.105 µM) | 1.06 (≈ 0.653 µM) | 0.17 (≈ 0.105 µM) | 0.5 | 50 |
| CC[C@H](C)[C@@H]1NC(=O)[C@H](Cc2c[nH]c3ccccc23)NC(=O)[C@H]([C@@H](C)O)NC(=O)[C@@H]2CCCN2C(=O)[C@H]2CCCN2C(=O)[C@H](CCN)NC(=O)[C@@H]2CCCN2C(=O)[C@H](CCN)NC(=O)[C@H](CCN)NC(=O)[C@H](Cc2c[nH]c3ccccc23)NC(=O)[C@H](CCN)NC(=O)[C@H](CCN)NC(=O)[C@H](CCCCN)NC(=O)[C@H](CCN)NC1=O [Example 17] (cyclo(TWI[Dab]K[Dab][Dab]W[Dab][Dab]P[Dab][dP]P)) | >1 | 0.75 (≈ 0.467 µM) | 1.25 (≈ 0.778 µM) | 1.50 (≈ 0.933 µM) | >2 | 2.00 (≈ 1.24 µM) | 0.5 | 29 |
| CC[C@H](C)[C@@H]1NC(=O)[C@H](Cc2c[nH]c3ccccc23)NC(=O)[C@H]([C@@H](C)O)NC(=O)[C@@H]2CCCN2C(=O)[C@H]2CCCN2C(=O)[C@H](CCN)NC(=O)[C@H](CC(C)C)NC(=O)[C@H](CCN)NC(=O)[C@H](CCN)NC(=O)[C@H](Cc2c[nH]c3ccccc23)NC(=O)[C@H](CCN)NC(=O)[C@H](CCN)NC(=O)[C@H](CCCCN)NC(=O)[C@H](CCN)NC1=O [Example 7] (cyclo(TWI[Dab]K[Dab][Dab]W[Dab][Dab]L[Dab][dP]P)) | >1 | 0.13 (≈ 0.0801 µM) | 0.65 (≈ 0.4 µM) | 0.50 (≈ 0.308 µM) | >2 | 1.50 (≈ 0.924 µM) | 0.8 | 13 |
| CC[C@H](C)[C@@H]1NC(=O)[C@H](Cc2c[nH]c3ccccc23)NC(=O)[C@H](CCC(=O)O)NC(=O)[C@@H]2CCCN2C(=O)[C@H]2CCCN2C(=O)[C@H](CCN)NC(=O)[C@H](C)NC(=O)[C@H](CCN)NC(=O)[C@H](CCN)NC(=O)[C@H](Cc2c[nH]c3ccccc23)NC(=O)[C@H](CCN)NC(=O)[C@@H](CCN)NC(=O)[C@H](CCCN)NC(=O)[C@H](CCN)NC1=O [Example 47] (cyclo(EWI[Dab][Orn][dDab][Dab]W[Dab][Dab]A[Dab][dP]P)) | 0.32 | 0.09 (≈ 0.0564 µM) | 0.50 (≈ 0.314 µM) | 0.13 (≈ 0.0815 µM) | 0.75 (≈ 0.47 µM) | 0.13 (≈ 0.0815 µM) | 0.2 | 50 |
